# Experimental data as given in US11549947B2, “Multiplexed detection with isotope-coded reporters” (Massachusetts Institute of Technology, priority 2011, dated 2023).
# B1: serum CEA: blood biomarker carcinoembryonic antigen secreted by LS174T cells (protein, UniProt P06731 35-685, looked up)
# Cell adhesion molecule CEACAM5: KLTIESTPFNVAEGKEVLLLVHNLPQHLFGYSWYKGERVDGNRQIIGYVIGTQQATPGPAYSGREIIYPNASLLIQNIIQNDTGFYTLHVIKSDLVNEEATGQFRVYPELPKPSISSNNSKPVEDKDAVAFTCEPETQDATYLWWVNNQSLPVSPRLQLSNGNRTLTLFNVTRNDTASYKCETQNPVSARRSDSVILNVLYGPDAPTISPLNTSYRSGENLNLSCHAASNPPAQYSWFVNGTFQQSTQELFIPNITVNNSGSYTCQAHNSDTGLNRTTVTTITVYAEPPKPFITSNNSNPVEDEDAVALTCEPEIQNTTYLWWVNNQSLPVSPRLQLSNDNRTLTLLSVTRNDVGPYECGIQNELSVDHSDPVILNVLYGPDDPTISPSYTYYRPGVNLSLSCHAASNPPAQYSWLIDGNIQQHTQELFISNITEKNSGLYTCQANNSASGHSRTTVKTITVSAELPKPSISSNNSKPVEDKDAVAFTCEPEAQNTTYLWWVNGQSLPVSPRLQLSNGNRTLTLFNVTRNDARAYVCGIQNSVSANRSDPVTLDVLYGPDTPIISPPDSSYLSGANLNLSCHSASNPSPQYSWRINGIPQQHTQVLFIAKITPNNNGTYACFVSNLATGRNNSIVKSITVSASGTSPGLSA
# Key:
# liver collagen = settings: mouse, in vivo
# Method: In vivo imaging. […] FVB/NJ mice (Jackson Labs) were fed with 0.1% w/w DDC (Sigma) rodent chow for three weeks (Research Diets). Fibrotic and age control animals were i.v. infused with VivoTag-680 labeled reagents and visualized by IVIS imaging (Xenogen).
# For in situ zymography, fibrotic sections were covered with 90 μl solution of 0.5% w/v low melt agarose (Sigma) in MMP activation buffer (50 mM Tris, 150 NaCl, 5 mM CaCl2, 0.025% Brij 35, pH 7.5) with 10 μl of DQ-gelation (1 mg/ml, Invitrogen) and Hoechst dye at 37° C. Slides were solidified at 4° C. and then incubated at room temperature overnight to promote gelation proteolysis by tissue proteases. To quantify hepatic collagen, tissue from the right and left lobes (250-300 mg) were hydrolyzed in 5 ml of 6 N HCl at 110° C. for 16 hours followed by hydroxyproline quantification as previously described.^43 To quantify CEA, blood was collected from tumor animals into Capiject microtubes (Terumo) to isolate serum before ELISA analysis (Calbiotech). For immunofluorescence analysis, equimolar NW cocktails (5 μM/peptide) were administered in Fibrotic FVB/NJ or tumor bearing Nude mice. After perfusion, livers or tumors were fixed in 4% PFA, froze for sectioning, and stained for F4/80 (AbD Serotec), MMP-9 (R&D Biosystems), CD31 (Santa Cruz Biotechnologies) and/or FITC (Genetex) before analyzed by fluorescence microscopy (Nikon Eclipse Ti). […]
# [1] = design: species or system FVB/NJ mice; settings: mouse, in vivo, iv
# Description: Using this assay, increases in sample fluorescence were observed upon proteolytic cleavage of the tethered fluorescent peptides resulting from abrogation of homoquenching between adjacent fluorophores. Initial reaction velocities were extracted for each protease-substrate combination and compiled for comparative analysis (FIG. 10a,b). FIG. 10 illustrates selecting protease-sensitive substrates for NW-chaperoned urinary trafficking. Kinetics of peptide-NW cleavage monitored by fluorimetry are shown in (a). Specific protease-substrate combinations led to rapid activation. […] IVIS in vivo imaging of DDC treated and control animals following intravenous injection of VivoTag-680 labeled Glu-fib peptides, (d) peptide-free NWs, or (e) peptide-conjugated NWs.
# [2] = test system: hepatic fibrosis and resolution in DDC-treated mice; experiment: iCORE LC MS/MS analysis of urinary reporters after i.v. NW cocktail, DDC liver fibrosis model; format: in vivo, FVB/NJ mice; settings: for individual iCORE peak intensity (DDC over control) relative to pretreatment: DDC-treated mice, NWs administered at 0, 3, 7 and 11 weeks, urine, n=10
# Method: (§1) Mice were intravenously infused with 200 μl of PBS containing equimolar NW cocktails (5 μM per peptide) with EDTA-free protease inhibitor tablets (Roche) to isolate MMP activity. Mice were placed over 96-well plates surrounded by cylindrical sleeves for urine collection. To prevent further reporter degradation, voided samples were spiked with EDTA+ complete protease inhibitors (Roche) immediately after collection. To quantify urinary fluorescence, 2 μL of each sample was incubated with magnetic beads (Dynal) coated with α-FITC antibodies (Genetex) in 50 μl binding buffer ([…], 0.01% CHAPS) for 1 hr at 37° C., washed twice with 100 mM NH4OAc, and eluted twice with 15 μl of 5% acetic acid. Samples were neutralized with 2 M Tris and quantified by microplate fluorimetry. For iCORE analysis, samples were irradiated with UV for 30 min. before TCA precipitation (20% final volume) to remove proteins. Soluble fractions were applied to C18 reverse phase columns (Nest Group) and eluted via step gradients of 20% ACN increments in 0.1% formic acid. 60% ACN fractions containing Glu-fib peptides were collected and dried by vacuum centrifuge.
# Peptide samples were reconstituted in 5% ACN, 0.1% formic acid and analyzed at MIT or the Taplin MS facility (Harvard Medical School). At MIT, peptides were captured and eluted from a C18 nanoflow HPLC column (75 μm internal diameter Magic C18 AQ, Michrom BioResources, Inc.) at a flow rate of 300 nL/min using water-acetonitrile solvent system with 0.1% formic acid. ESI mass spectrometry was carried out on a QSTAR Elite QTOF mass spectrometer (AB Sciex). At Harvard, samples are reconstituted in 2.5% ACN, 0.1% formic acid. Samples are injected using a Famos autosampler (LC Packings) into an Agilent 1100 HPLC prior to mass analysis on a LTQ-Orbitrap (Thermo Electron). To account for discrepancies in urine volumes and concentration, peak intensities of individual reporters were scaled relative to its respective total iCORE ion current before normalization against control samples to account for technical and age-related variations.
# Pearson's correlation coefficients between different protease profiles were calculated with MatLAB. ANOVA analyses were calculated with GraphPad 5.0 (Prism). For ROC analysis, risk score functions were first estimated by logistic regression on individual biomarkers followed by ROC curve analyses of single or biomarker combinations (SigmaPlot).
# Thus, to monitor the transitions between fibrosing and resolving disease, NWs were administered at 0, 3, 7, and 11 weeks into DDC-treated and age-matched control animals followed by iCORE MS/MS analysis.
# The diagnostic performance of these biomarkers was determined by performing receiver operating characteristic (ROC) analyses for individual as well as biomarker combinations. ROC curves characterize the sensitivity and specificity of a biomarker as a function of the discrimination threshold by returning the area under the curve (AUC) as a performance metric with a baseline AUC of 0.5 representing a random biomarker classifier (dashed line, FIG. 11g,h).
# LS174T xenograft tumors [3] = experiment: iCORE MS/MS analysis of urinary reporters after i.v. NW library, colorectal tumor xenograft model; format: in vivo, athymic nude mice; settings: LS 174T tumor vs control, day 10; n=16 (8 ctrl, 8 tumor)
# Method: as §1, with “60% ACN fractions containing Glu-fib peptides were collected and dried by vacuum centrifuge.” left out
# Peptide samples were reconstituted in 5% ACN, 0.1% formic acid and analyzed at MIT or the Taplin MS facility (Harvard Medical School). […]
# Pearson's correlation coefficients between different protease profiles were calculated with MatLAB. ANOVA analyses were calculated with GraphPad 5.0 (Prism). […]
# LS174T xenograft tumors [4] = experiment: Serum CEA by ELISA in tumor animals; format: in vivo, athymic nude mice
# Method: To quantify hepatic collagen, tissue from the right and left lobes (250-300 mg) were hydrolyzed in 5 ml of 6 N HCl at 110° C. for 16 hours followed by hydroxyproline quantification as previously described.^43 To quantify CEA, blood was collected from tumor animals into Capiject microtubes (Terumo) to isolate serum before ELISA analysis (Calbiotech).
# Here, it was investigated whether panels of synthetic urinary biomarkers could be readily adapted to allow earlier and more accurate detection of cancer compared with single clinical blood biomarkers, e.g., because nanoparticles can be passively targeted to tumors to sample proteases through fenestrated angiogenic tumor vessels.^16. In order to explore this concept, athymic nude mice were used bearing LS174T xenograft tumors, a human colorectal cancer (CRC) cell line^38 that secretes the blood biomarker carcinoembryonic antigen (CEA) as a model system (FIG. 22). […] Following implantation, tumor engraftment was monitored by sampling serum every 3 days and analyzing for CEA by ELISA (FIG. 23b,c). […] Tumors permitted to grow further were readily detected by CEA analysis (day 13 and 16), representing a limit of detection of ˜330 mm3 (d ˜8.6 mm) (**P<0.01, Two way ANOVA, n=5). […] To determine the full diagnostic potential of multiplexed analysis, individual biomarkers were quantified by iCORE MS/MS.
Molecule,individual iCORE peak intensity (DDC over control) relative to pretreatment [2],further results
"3,5-diethoxycarbonyl-1,4-dihydrocollidine [DDC]",,drop in liver collagen (liver collagen): ~30%
"EGVNDNEEGFFSAR [Glu-fib, prototypic urinary marker peptide]",,liver homing [1]: undetectable; urinary filtration / urinary fluorescence [1]: efficiently filtered into urine
eGVndnee^+3G^+6FfsAr-X-K(FAM)GGf(Pip)KSGGGC-NW [Biomarker G10],did not deviate from initial pretreatment activities,
eG^+5VndneeGFfs^+4Ar-X-K(FAM)GGPVPLSLVMC-NW [Biomarker G5],significantly decreasing at week 3,"ROC area under the curve (AUC), fibrosing biomarkers ([2]; fibrosing window of 0-3 weeks, baseline AUC 0.5): 0.96"
eG^+6Vndnee^+2GFfs^+1Ar-X-K(FAM)GGPWGIWGQGC-NW [Biomarker G4],strongly increased relative to pretreatment baselines,
e^+1GVndnee^+2G^+6FfsAr-X-K(FAM)GGfPRSGGGC-NW [Biomarker G9],did not deviate from initial pretreatment activities,
e^+1G^+6Vndnee^+2GFfsAr-X-K(FAM)GGPVGLIGC-NW [Biomarker G3],strongly increased relative to pretreatment baselines,
e^+2GVndneeG^+6Ffs^+1Ar-X-K(FAM)GGf(Pip)RSGGGC-NW [Biomarker G8],did not deviate from initial pretreatment activities,
e^+2G^+6Vndnee^+1GFfsAr-X-K(FAM)GGLVPRGSGC-NW [Biomarker G2],did not deviate from initial pretreatment activities,
e^+3GVndneeG^+6FfsAr-X-K(FAM)GGPLGVRGKC-NW [Biomarker G7],elevating sharply at week 3 followed by a rapid reversal at week 7,
e^+3G^+1Vndnee^+1GFfs^+4Ar-X-K(FAM)GGPLGLRSWC-NW [Biomarker G6],significantly decreasing at week 3,
e^+3G^+6VndneeGFfsAr-X-K(FAM)GGPQGIWGQC-NW [Biomarker G1],did not deviate from initial pretreatment activities,"ROC area under the curve (AUC), resolving biomarkers ([2]; resolving time frame of 7-11 weeks, baseline AUC 0.5): 0.73; ROC area under the curve (AUC), tumor biomarkers (LS174T xenograft tumors [3]): 0.78"
B1,,"ROC area under the curve (AUC), serum CEA (LS174T xenograft tumors [4]; day 10): 0.61; limit of detection (tumor burden) by CEA analysis (LS174T xenograft tumors [4]; day 13 and 16): ~330 mm3"
